Results: ChEMBL document CHEMBL1201862, “PubChem BioAssay data set” (2004)
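Five concentrations, 48 hours, 96-well plates. GI50 = concentration required for 50% inhibition of growth.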 Active and inactive are the calls of the source. Rule as the data show it: active = GI50 up to about 1.1 µM and inactive = higher.

Legend:
Assay in all cases: NCI-60 cell line screen, 48 h
EKVX = test system: EKVX
NCI-H23 = test system: NCI-H23
KM12 = test system: KM12
RXF 393 = test system: RXF 393
UACC-62 = test system: UACC-62
DLD-1 = test system: DLD-1
NCI-H522 = test system: NCI-H522
HOP-92 = test system: HOP-92
CAKI-1 = test system: CAKI-1
OVCAR-4 = test system: OVCAR-4
DMS-114 = test system: DMS-114
MOLT-4 = test system: MOLT-4
OVCAR-5 = test system: OVCAR-5
SF-539 = test system: SF-539
SK-OV-3 = test system: SK-OV-3
KM-20L2 = test system: KM-20L2
XF498 = test system: XF498
HCC 2998 = test system: HCC 2998
HCT-15 = test system: HCT-15
LOX IMVI = test system: LOX IMVI
K562 = test system: K562
Malme-3M = test system: Malme-3M
IGROV-1 = test system: IGROV-1
CCRF-CEM = test system: CCRF-CEM
LXFL 529 = test system: LXFL 529
HT-29 = test system: HT-29
786-0 = test system: 786-0
SN12C = test system: SN12C
SNB-75 = test system: SNB-75
NCI-H226 = test system: NCI-H226
ACHN = test system: ACHN
SK-MEL-2 = test system: SK-MEL-2
SNB-19 = test system: SNB-19
DMS-273 = test system: DMS-273
UO-31 = test system: UO-31
M19-MEL = test system: M19-MEL
M14 = test system: M14
A498 = test system: A498
SF-295 = test system: SF-295
NCI-H460 = test system: NCI-H460
SW-620 = test system: SW-620
SK-MEL-5 = test system: SK-MEL-5
RPMI-8226 = test system: RPMI-8226
A549 = test system: A549
HL-60 = test system: HL-60
OVCAR-3 = test system: OVCAR-3
OVCAR-8 = test system: OVCAR-8
SK-MEL-28 = test system: SK-MEL-28
TK-10 = test system: TK-10
SF-268 = test system: SF-268
COLO 205 = test system: COLO 205
UACC-257 = test system: UACC-257
HOP-62 = test system: HOP-62
SR = test system: SR
HCT-116 = test system: HCT-116
SNB-78 = test system: SNB-78
U-251 = test system: U-251

Compound: COC(=O)/C(C#N)=C1\CCc2ccccc21
- GI50 (EKVX): > 100 µM (inactive)
- GI50 (NCI-H23): > 100 µM (inactive)
- GI50 (KM12): > 100 µM (inactive)
- GI50 (RXF 393): > 100 µM (inactive)
- GI50 (UACC-62): > 100 µM (inactive)
- GI50 (DLD-1): > 100 µM (inactive)
- GI50 (NCI-H522): > 100 µM (inactive)
- GI50 (HOP-92): > 100 µM (inactive)
- GI50 (CAKI-1): > 100 µM (inactive)
- GI50 (OVCAR-4): > 100 µM (inactive)
- GI50 (DMS-114): > 100 µM (inactive)
- GI50 (MOLT-4): > 100 µM (inactive)
- GI50 (OVCAR-5): > 100 µM (inactive)
- GI50 (SF-539): > 100 µM (inactive)
- GI50 (SK-OV-3): > 100 µM (inactive)
- GI50 (KM-20L2): > 100 µM (inactive)
- GI50 (XF498): > 100 µM (inactive)
- GI50 (HCC 2998): > 100 µM (inactive)
- GI50 (HCT-15): > 100 µM
- GI50 (LOX IMVI): > 100 µM (inactive)
- GI50 (K562): > 100 µM (inactive)
- GI50 (Malme-3M): > 100 µM (inactive)
- GI50 (IGROV-1): > 100 µM (inactive)
- GI50 (CCRF-CEM): > 100 µM (inactive)
- GI50 (LXFL 529): > 100 µM (inactive)
- GI50 (HT-29): > 100 µM (inactive)
- GI50 (786-0): > 100 µM (inactive)
- GI50 (SN12C): > 100 µM (inactive)
- GI50 (SNB-75): > 100 µM (inactive)
- GI50 (NCI-H226): > 100 µM (inactive)
- GI50 (ACHN): > 100 µM (inactive)
- GI50 (SK-MEL-2): > 100 µM (inactive)
- GI50 (SNB-19): > 100 µM (inactive)
- GI50 (DMS-273): > 100 µM (inactive)
- GI50 (UO-31): > 100 µM (inactive)
- GI50 (M19-MEL): > 100 µM (inactive)
- GI50 (M14): > 100 µM (inactive)
- GI50 (A498): > 100 µM (inactive)
- GI50 (SF-295): > 100 µM (inactive)
- GI50 (NCI-H460): > 100 µM (inactive)
- GI50 (SW-620): > 100 µM (inactive)
- GI50 (SK-MEL-5): > 100 µM (inactive)
- GI50 (RPMI-8226): > 100 µM (inactive)
- GI50 (A549): > 100 µM (inactive)
- GI50 (HL-60): > 100 µM (inactive)
- GI50 (OVCAR-3): > 100 µM (inactive)
- GI50 (OVCAR-8): > 100 µM (inactive)
- GI50 (SK-MEL-28): > 100 µM (inactive)
- GI50 (TK-10): > 100 µM (inactive)
- GI50 (SF-268): > 100 µM (inactive)
- GI50 (COLO 205): > 100 µM (inactive)
- GI50 (UACC-257): > 100 µM (inactive)

Compound: CC(=O)OC[C@]1(C)CCCC2(C)C1CCC1C=C(C)[C@H]3CCC12C3 (some centres not stated)
- GI50 (NCI-H23): 94.4 µM (inactive)
- GI50 (HOP-62): 50.9 µM (inactive)
- GI50 (KM12): 52.6 µM (inactive)
- GI50 (RXF 393): 44.4 µM (inactive)
- GI50 (SR): > 100 µM (inactive)
- GI50 (UACC-62): 56.9 µM (inactive)
- GI50 (DLD-1): 99.3 µM (inactive)
- GI50 (NCI-H522): 10.6 µM (inactive)
- GI50 (CAKI-1): > 100 µM (inactive)
- GI50 (OVCAR-4): > 100 µM (inactive)
- GI50 (MOLT-4): > 100 µM (inactive)
- GI50 (OVCAR-5): > 100 µM (inactive)
- GI50 (SF-539): 25.5 µM (inactive)
- GI50 (SK-OV-3): 44.1 µM (inactive)
- GI50 (KM-20L2): 42.9 µM (inactive)
- GI50 (HCC 2998): > 100 µM (inactive)
- GI50 (HCT-15): 48.3 µM
- GI50 (LOX IMVI): 47.5 µM (inactive)
- GI50 (K562): > 100 µM (inactive)
- GI50 (Malme-3M): > 100 µM (inactive)
- GI50 (IGROV-1): > 100 µM (inactive)
- GI50 (CCRF-CEM): > 100 µM (inactive)
- GI50 (LXFL 529): > 100 µM (inactive)
- GI50 (HT-29): 43.3 µM (inactive)
- GI50 (786-0): 66.2 µM (inactive)
- GI50 (SN12C): 40.3 µM (inactive)
- GI50 (HCT-116): 47.4 µM (inactive)
- GI50 (SNB-75): 31.8 µM (inactive)
- GI50 (NCI-H226): > 100 µM (inactive)
- GI50 (ACHN): > 100 µM (inactive)
- GI50 (SNB-19): > 100 µM (inactive)
- GI50 (UO-31): > 100 µM (inactive)
- GI50 (M19-MEL): 63.4 µM (inactive)
- GI50 (M14): 35.2 µM (inactive)
- GI50 (SF-295): 35 µM (inactive)
- GI50 (SNB-78): 45.9 µM (inactive)
- GI50 (NCI-H460): 33.7 µM (inactive)
- GI50 (SW-620): 31.6 µM (inactive)
- GI50 (SK-MEL-5): > 100 µM (inactive)
- GI50 (RPMI-8226): 62.7 µM (inactive)
- GI50 (A549): 65.2 µM (inactive)
- GI50 (U-251): 39.7 µM (inactive)
- GI50 (HL-60): > 100 µM (inactive)
- GI50 (OVCAR-3): 61.4 µM (inactive)
- GI50 (OVCAR-8): > 100 µM (inactive)
- GI50 (SK-MEL-28): 60.5 µM (inactive)
- GI50 (TK-10): > 100 µM (inactive)
- GI50 (SF-268): 37.8 µM (inactive)
- GI50 (COLO 205): 38.5 µM (inactive)
- GI50 (UACC-257): 61.7 µM (inactive)
